Assay results as given in patent US9206423B2, “Methods of modulating compliance of the trabecular meshwork” (The Regents of the University of California, priority 2012, dated 2015).

How the values were obtained:
[1] = test system: YAP; assay: Expression of YAP in HTM cells after 17-allylamino-17-demethoxygelanamycin; format: cell-based, human; conditions: 25 nM
[2] = test system: HSP90; assay: Amount of HSP90 in HTM cells after 17-allylamino-17-demethoxygelanamycin; format: cell-based, human; conditions: 25 nM

SMILES: C=CCNC1=C2C[C@@H](C)C[C@H](OC)[C@H](O)[C@@H](C)/C=C(\C)[C@H](OC(N)=O)[C@@H](OC)/C=C\C=C(/C)C(=O)NC(=CC1=O)C2=O [17-allylamino-17-demethoxygelanamycin]
- expression of YAP [1]: increased expression
- reduction of the amount of HSP90 [2]: 50%
